Assay results reported in the supplement of paper PMC10949913.
Several values for one entry are separate records, joined by “and”; a condition that tells them apart may be missing. Equal entries are not always repeated.

What was measured:
Conditions in all cases: 48 h
NCI-H295R [1] = assay: AC50 viability; higher = less potent
Outline: (§1)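 After 48 h of treatment with 23 nL of each library compound at 11 concentrations, three adrenocortical carcinoma cell lines in 1,536-well plates (500–1,000 cells/well, 5 µL medium) were given CellTiter-Glo for 15 minutes at room temperature. Luminescence was then read and normalised per plate to vehicle and empty-well controls. AC50 and area under the curve were drawn from fitted concentration-response curves of inhibitory or non-responding classes only.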

CU-ACC1 [2] = assay: AC50 viability; higher = less potent
Outline: as §1

CU-ACC2 [3] = assay: AC50 viability; higher = less potent
Outline: as §1

NCI-H295R [4] = assay: area under concentration-response curve (viability) (AUC (a.u.)); higher = less active
Outline: as §1

CU-ACC1 [5] = assay: as above
Outline: as §1

CU-ACC2 [6] = assay: as above
Outline: as §1

Row | Structure (SMILES) | AC50 viability (NCI-H295R [1]) [µM] | AC50 viability (CU-ACC1 [2]) | AC50 viability (CU-ACC2 [3]) [µM] | area under concentration-response curve (NCI-H295R [4]) | area under concentration-response curve (CU-ACC1 [5]) | area under concentration-response curve (CU-ACC2 [6])
1 | COc1ccc(-c2cc3c(C)nc(N)nc3n([C@H]3CC[C@H](OCCO)CC3)c2=O)cn1 | 0.235 | 0.295 µM | 0.59 | 435 | 425 | 446
2 | O=C(/C=C\n1cnc(-c2cc(C(F)(F)F)cc(C(F)(F)F)c2)n1)NNc1ccccn1 | 10.5 | 2.35 µM | 1.32 | 271 | 273 | 245
3 | N[C@@H](Cc1ccc(N(CCCl)CCCl)cc1)C(=O)O | 9.34 | 10.5 µM | 9.34 | 385 | 267 | 303
4 | CNC1CCC(N(Cc2cccc(-c3ccncc3)c2)C(=O)c2sc3c(F)ccc(F)c3c2Cl)CC1 (configuration not stated) | 9.34 | 8.33 µM | 9.34 | 448 | 443 | 499
5 | CCOC(=O)CCNc1cc(N2CCc3ccccc3CC2)nc(-c2ccccn2)n1 | 3.72 | 3.32 µM | 16.6 | 444 | 384 | 534
6 | CC(C)C1=C(O)C=C(O)C(=C1)C/2=N/NC(=O)N2C3=CC4=C(C=C3)[N](C)C=C4 | 0.132 | 0.0934 µM | 0.0186 | 416 | 322 | 309
7 | CC1(N2CCC(n3c([C@@H]4CCCNC4)nc4ccccc43)CC2)CCCCCCC1 | 11.8 | 10.5 µM | 13.2 | 439 | 470 | 562
8 | N#C/C(=C1/Nc2ccccc2S1)c1ccnc(OCc2ccc(CN3CCOCC3)cc2)n1 | 11.8 | 4.68 µM | 18.6 | 429 | 434 | 426
9 | O=C(c1ccc(F)c(F)c1Nc1ccc(I)cc1F)N1CC(O)([C@@H]2CCCCN2)C1 | 10.5 | 6.61 µM | 3.32 | 371 | 308 | 299
10 | NC(CO)(CO)CCc1ccc(Sc2cccc(OCc3ccccc3)c2)cc1Cl | 10.5 | 14.8 µM | 18.6 | 449 | 423 | 491
11 | Nc1ncccc1-c1nc2ccc(-c3ccccc3)nc2n1-c1ccc(C2(N)CCC2)cc1 | 5.9 | 8.33 µM | 16.6 | 408 | 354 | 437
12 | CC(O)(C#Cc1ccc2c(c1)N(c1nc(N)ncc1Cl)CC2)c1nccs1 (configuration not stated) | 16.6 | 14.8 µM | 18.6 | 507 | 494 | 560
13 | CC(C)C[C@H](NC(=O)CNC(=O)c1cc(Cl)ccc1Cl)B1OC(=O)CC(CC(=O)O)(C(=O)O)O1 (some centres not stated) | 0.372 | 0.263 µM | 0.332 | 413 | 302 | 380
14 | C=CC(=O)Nc1cc(Nc2nccc(-c3cn(C)c4ccccc34)n2)c(OC)cc1N(C)CCN(C)C | 9.34 | 9.34 µM | 10.5 | 408 | 393 | 432
15 | COc1cc(F)ccc1-c1ncnc(Nc2cccc(C[S+](C)(=N)[O-])c2)n1 (configuration not stated) | 4.17 | 1.86 µM | 0.934 | 428 | 388 | 380
16 | Cc1nn(Cc2ccccc2Cl)c(C)c1CN(C)CC(O)COc1ccc(Cl)cc1 (configuration not stated) | 8.33 | 8.33 µM | 7.42 | 482 | 418 | 507
17 | COc1cccc2c1C(=O)c1c(O)c3c(c(O)c1C2=O)C[C@@](O)(C(=O)CO)C[C@@H]3O[C@H]1C[C@H](N)[C@H](O[C@H]2CCCCO2)[C@H](C)O1 | 20.9 | 5.25 µM and 9.34 µM | 6.61 | 435 | 230 and 410 | 168 and 501
18 | COC1=CC=C(C=C1)C/2=C/OC3=C(C(=CC(=C3)O)O)C2=O |  | 0.0661 µM | 0.295 | 208 | 267 | 164
19 | Cn1c(CCCCCCC(=O)NO)nc2cc(N(CCCl)CCCl)ccc21 |  | 10.5 µM | 5.9 | 497 | 439 | 479
20 | CN[C@@H]1CN(C[C@H]1OC)C2=NC3=C(C=C2)C(=O)C(=C\N3C4=NC=CS4)/C(O)=O |  | 10.2 µM | 4.56 | 445 | 475 | 474
21 | CCC(=C/[C@H](C)C/C=C/C(C)=C/[C@@H](C)C(=O)[C@@H](C)[C@H](O)[C@@H](C)C/C(C)=C/C(=O)O)/C=C/[C@@H]1OC(=O)C=C[C@@H]1C |  | 0.00105 µM | 13.2 | 333 | 230 | 344
